TGI data for 9 compounds are collected here from PubChem BioAssay (NCI).

The structures appear in SMILES notation.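 Step 1: Grow cells in 96-well plates. Step 2: Expose to compound for 48 hours at 5 concentrations. Step 3: Interpolate endpoints linearly; if unreached, use highest concentration. TGI denotes the concentration required for complete inhibition of growth.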

Some test systems named below: U251 CNS; SF-268 CNS; OVCAR-5 ovarian; MDA-MB-435; SK-OV-3 ovarian; COLO 205 colon; HL-60(TB) leukemia; SR leukemia; EKVX NSCLC; IGROV1 ovarian; SK-MEL-5 melanoma; UACC-62 melanoma; CCRF-CEM leukemia; TK-10 renal; NCI-H522 lung; HCC-2998 colon; SK-MEL-28 melanoma; MALME-3M melanoma; SNB-75 CNS.
Holding throughout (assay): NCI-60 cell line screen, 48 h

As to `COc1cc(Br)cc2cc(-c3cn4c(n3)sc3ccccc34)c(=O)oc12`, the TGI in the assay with U251 CNS was 72.1 µM; with SF-268 CNS, above 75 µM; with OVCAR-5 ovarian, above 75 µM; in the assay on MDA-MB-435, above 75 µM; in the assay with SK-OV-3 ovarian, above 75 µM; with COLO 205 colon it was above 75 µM. Moreover, the TGI with HL-60(TB) leukemia is 36.2 µM; in the assay on SR leukemia, above 75 µM; in the assay with EKVX NSCLC, 52.1 µM; with IGROV1 ovarian, 34.9 µM; in the assay on SK-MEL-5 melanoma it was above 75 µM; in the assay on UACC-62 melanoma, above 75 µM. Further, the TGI in the assay with CCRF-CEM leukemia is above 75 µM; in the assay on TK-10 renal, above 75 µM; in the assay on NCI-H522 lung, 28.7 µM.
As to `Nc1ccc(Cc2c(N)[nH]c(=O)[nH]c2=O)cc1`, the TGI with U251 CNS, in the assay on SF-268 CNS, in the assay on OVCAR-5 ovarian, with MDA-MB-435, in the assay on SK-OV-3 ovarian and in the assay with COLO 205 colon was above 100 µM in each case. Further, the TGI in the assay on HCC-2998 colon, with HL-60(TB) leukemia, in the assay on SK-MEL-28 melanoma, in the assay with SK-MEL-5 melanoma, in the assay on UACC-62 melanoma and in the assay with CCRF-CEM leukemia was above 100 µM each time. Besides, the TGI in the assay with MALME-3M melanoma and in the assay with NCI-H522 lung was above 100 µM in each case.
With `O=C1NC(=S)NC(=O)C1C(c1ccc(O)cc1)C1C(=O)NC(=S)NC1=O`, the TGI in the assay with U251 CNS, with OVCAR-5 ovarian, in the assay on MDA-MB-435, in the assay on COLO 205 colon, with HL-60(TB) leukemia and in the assay on IGROV1 ovarian was above 100 µM each time. The TGI in the assay with SK-MEL-28 melanoma, in the assay on SK-MEL-5 melanoma, in the assay with UACC-62 melanoma, in the assay on CCRF-CEM leukemia, in the assay with TK-10 renal and in the assay with MALME-3M melanoma was above 100 µM throughout. Further, the TGI in the assay with NCI-H522 lung was above 100 µM.
For the compound `CC(=O)OC1C(Oc2c(C)cc3c(c2O)[C@@H](C)CC[C@@H]3[C@@H](C)CCC=C(C)C)OCC(O)C1O` (stereo partly specified), the TGI stood at 32.3 µM with U251 CNS; 33.1 µM with SF-268 CNS; 30.6 µM in the assay on OVCAR-5 ovarian; 28.1 µM with MDA-MB-435; 38.1 µM with SK-OV-3 ovarian; 30.7 µM with COLO 205 colon. Besides, the TGI in the assay with HL-60(TB) leukemia stood at 41.7 µM; in the assay with SR leukemia, 47.3 µM; with IGROV1 ovarian it was 37.9 µM; with SK-MEL-5 melanoma, 32.1 µM; in the assay on UACC-62 melanoma, 34.9 µM; in the assay with CCRF-CEM leukemia, 66.9 µM. Also, the TGI in the assay with NCI-H522 lung amounted to 36.4 µM.
`CC(=O)O[C@H]1C(=O)[C@@]2(C)[C@H]([C@H](OC(=O)c3ccoc3)[C@]3(O)C[C@H](OC(=O)[C@H](O)[C@@H](NC(=O)c4ccccc4)c4ccccc4)C(C)=C1C3(C)C)[C@]1(OC(C)=O)CO[C@@H]1C[C@@H]2O`: the TGI is above 12.5 µM with U251 CNS; above 12.5 µM with SF-268 CNS; above 12.5 µM in the assay on OVCAR-5 ovarian; 0.0236 µM with MDA-MB-435; above 3.15 µM in the assay with SK-OV-3 ovarian; 0.998 µM in the assay with HCC-2998 colon. The TGI with SNB-75 CNS was 2.38 µM; with EKVX NSCLC, above 12.5 µM; with IGROV1 ovarian it was above 12.5 µM; in the assay with SK-MEL-28 melanoma, above 12.5 µM; in the assay on UACC-62 melanoma it was above 12.5 µM; with CCRF-CEM leukemia, above 2.88 µM. Besides, the TGI in the assay on TK-10 renal was above 12.5 µM.
In the case of `O=c1c2ccccc2nc(Cc2nc(-c3ccc(Cl)cc3)cs2)n1-c1ccc(Cl)cc1`, the TGI in the assay with U251 CNS, in the assay with SF-268 CNS, in the assay on OVCAR-5 ovarian, in the assay with MDA-MB-435, with SK-OV-3 ovarian and in the assay with COLO 205 colon was above 100 µM each time. In addition, the TGI with HCC-2998 colon, in the assay with HL-60(TB) leukemia, with SNB-75 CNS, in the assay with EKVX NSCLC, with IGROV1 ovarian and in the assay with SK-MEL-28 melanoma was above 100 µM each time. Besides, the TGI in the assay with SK-MEL-5 melanoma, in the assay with UACC-62 melanoma, in the assay with CCRF-CEM leukemia, in the assay on TK-10 renal, in the assay with MALME-3M melanoma and in the assay with NCI-H522 lung was above 100 µM each time.
`CN(C)CCCN=c1c2ccccc2n(O)c2ccccc12`: the TGI was above 100 µM with U251 CNS; above 100 µM in the assay on SF-268 CNS; above 100 µM in the assay on OVCAR-5 ovarian; above 100 µM in the assay on MDA-MB-435; above 100 µM in the assay with SK-OV-3 ovarian; 26.9 µM in the assay on COLO 205 colon. Besides, the TGI in the assay with HL-60(TB) leukemia, in the assay with SNB-75 CNS, with EKVX NSCLC, in the assay on IGROV1 ovarian, in the assay with SK-MEL-28 melanoma and in the assay with SK-MEL-5 melanoma was above 100 µM in each case. The TGI with UACC-62 melanoma, with CCRF-CEM leukemia, in the assay on TK-10 renal, in the assay on MALME-3M melanoma and with NCI-H522 lung was above 100 µM each time.
Take `O=C(c1ccco1)N(C(=S)OCCOc1ccccc1)c1ccccc1`: the TGI stood at 30.2 µM in the assay with U251 CNS; 35.3 µM in the assay with SF-268 CNS; 41.1 µM with OVCAR-5 ovarian; 29.7 µM with MDA-MB-435; 55.3 µM in the assay with SK-OV-3 ovarian; 37.5 µM with COLO 205 colon. Besides, the TGI in the assay on HCC-2998 colon came out at 37.9 µM; with HL-60(TB) leukemia, 47.3 µM; with EKVX NSCLC it was 52.4 µM; with IGROV1 ovarian, 36.9 µM; in the assay with SK-MEL-28 melanoma, 40.3 µM; with UACC-62 melanoma, 32.7 µM. Moreover, the TGI in the assay with CCRF-CEM leukemia was 46.5 µM; in the assay on TK-10 renal it was 55.2 µM; in the assay with MALME-3M melanoma it was 40 µM; with NCI-H522 lung it was 40.5 µM.
As to `CN(C(=O)Cc1cccc(N=C=S)c1)[C@H]1CCCC[C@@H]1N1CCCC1`, the TGI came to 32.3 µM in the assay with U251 CNS; 36.4 µM in the assay on SF-268 CNS; 36.1 µM in the assay on OVCAR-5 ovarian; 27.8 µM with MDA-MB-435; 69.4 µM in the assay on SK-OV-3 ovarian; 25.2 µM in the assay on COLO 205 colon. Further, the TGI with SNB-75 CNS was found to be 27.8 µM; with SR leukemia, 29.2 µM; with EKVX NSCLC, 39.6 µM; in the assay on IGROV1 ovarian, 28.1 µM; with SK-MEL-28 melanoma, 32.8 µM; in the assay with SK-MEL-5 melanoma, 20.4 µM. For the same compound, the TGI in the assay on UACC-62 melanoma was 29.4 µM; with CCRF-CEM leukemia it was 32.9 µM; in the assay with TK-10 renal, 24.3 µM; with MALME-3M melanoma, 40.5 µM; in the assay on NCI-H522 lung it was 27.6 µM.
